Laboratory results from PMC10747736, “In Vitro Activities of Dithiocarbamate Derivatives against Echinococcus multilocularis Metacestode Vesicles” (Tropical Medicine and Infectious Disease, 2023).

System: E. multilocularis metacestode vesicles
Test: PGI assay (damage marker release) with metacestode vesicles
Format: cell-based, Echinococcus multilocularis
Design: key: Active: Compounds were considered active when they reached 20% of PGI release relative to Triton X-100; Not active: Compounds were considered active when they reached 20% of PGI release relative to Triton X-100
Conditions: overview screen at 10 µM, five days, 20% cut-off relative to Triton X-100
Procedure: In order to screen disulfiram and dithiocarbamate derivatives as potential new drug candidates, we used an in vitro screening cascade, in which the compounds were first screened against E. multilocularis metacestode vesicles via the phosphoglucose isomerase (PGI) assay, in which metacestode vesicle damage is assessed by the measurement of damage marker (PGI) release (Figure 1, see Section 2.6). […] Subsequently, compounds were assessed in concentration series on E. multilocularis metacestode vesicles via the PGI assay and on GL cell cultures via the CellTiter-Glo assay (see Section 2.9). The testing on mammalian cells as well as metacestode vesicles and GL cell cultures allowed the identification of a potential therapeutic window in vitro.
PGI assays were conducted at the University of Bern as described previously. In short, two-to-three-month-old metacestode vesicles of two to four mm in diameter were purified using 2% sucrose followed by several washing steps in PBS. Purified metacestode vesicles were mixed with two volumes of DMEM without phenol red containing penicillin (100 U/mL) and streptomycin (100 µg/mL). […] Samples were measured on an EnSpire multilabel reader (Perkin Elmer, Waltham, MA, USA). […] Samples were measured on a HIDEX Sense microplate reader (Hidex, Turku, Finland). […]

CCN(CC)C(=S)SSC(=S)N(CC)CC [Disulfiram]
PGI assay (active / not active): Not active
PGI assay (active / not active) (listed as disulfiram): showed no effect
